# Assays:
# Histone deacetylase 4 = Histone deacetylase 4 (Homo sapiens, UniProt P56524); assay: Inhibition of human HDAC4 expressed in 293T cells; type: cell-based
# [1] = target: T1, Protein deacetylase HDAC6 (Homo sapiens, UniProt Q9UBN7); assay: Inhibition of human HDAC6 expressed in 293T cells; type: cell-based
# T1 sequence (Q9UBN7 whole entry): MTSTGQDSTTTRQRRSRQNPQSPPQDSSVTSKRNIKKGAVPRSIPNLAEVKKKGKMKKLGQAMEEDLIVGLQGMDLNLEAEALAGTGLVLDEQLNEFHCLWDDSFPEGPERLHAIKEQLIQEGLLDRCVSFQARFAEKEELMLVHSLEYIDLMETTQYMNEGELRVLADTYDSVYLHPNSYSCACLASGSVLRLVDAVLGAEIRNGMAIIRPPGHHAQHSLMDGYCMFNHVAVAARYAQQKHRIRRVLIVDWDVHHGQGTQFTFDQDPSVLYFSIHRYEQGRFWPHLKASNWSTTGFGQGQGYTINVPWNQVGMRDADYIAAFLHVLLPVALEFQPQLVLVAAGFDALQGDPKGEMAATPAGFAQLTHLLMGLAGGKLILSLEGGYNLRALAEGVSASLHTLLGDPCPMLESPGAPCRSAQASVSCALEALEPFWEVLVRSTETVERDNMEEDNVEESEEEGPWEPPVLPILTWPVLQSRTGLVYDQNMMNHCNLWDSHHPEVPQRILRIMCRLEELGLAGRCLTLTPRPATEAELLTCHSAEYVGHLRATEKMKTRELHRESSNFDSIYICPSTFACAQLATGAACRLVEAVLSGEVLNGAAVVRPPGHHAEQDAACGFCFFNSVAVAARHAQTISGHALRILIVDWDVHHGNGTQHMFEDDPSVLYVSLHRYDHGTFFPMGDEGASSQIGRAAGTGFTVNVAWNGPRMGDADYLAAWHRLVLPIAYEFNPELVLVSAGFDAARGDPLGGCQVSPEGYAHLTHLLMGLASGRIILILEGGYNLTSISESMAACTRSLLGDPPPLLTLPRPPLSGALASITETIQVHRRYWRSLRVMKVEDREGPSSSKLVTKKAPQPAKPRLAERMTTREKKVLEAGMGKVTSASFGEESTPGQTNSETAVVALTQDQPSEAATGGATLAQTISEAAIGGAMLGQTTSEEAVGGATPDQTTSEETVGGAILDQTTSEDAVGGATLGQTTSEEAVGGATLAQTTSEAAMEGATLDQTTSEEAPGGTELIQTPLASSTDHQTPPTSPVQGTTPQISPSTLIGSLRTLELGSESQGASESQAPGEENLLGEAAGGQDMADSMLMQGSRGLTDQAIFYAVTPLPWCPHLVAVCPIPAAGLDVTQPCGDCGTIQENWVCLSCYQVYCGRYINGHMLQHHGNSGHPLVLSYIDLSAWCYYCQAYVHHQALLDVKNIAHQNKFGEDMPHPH
# HeLa = assay: Induction of p21 expression in human HeLa cells after 24 hrs; type: functional
# Mus musculus = organism: Mus musculus; assay: Antiangiogenic activity in mouse induced pluripotent stem cells; type: functional
# Histone deacetylase 1 = Histone deacetylase 1 (Homo sapiens, UniProt Q13547); assay: Inhibition of human HDAC1 expressed in 293T cells; type: cell-based
# Sequence of Histone deacetylase 1 (Q13547 whole entry): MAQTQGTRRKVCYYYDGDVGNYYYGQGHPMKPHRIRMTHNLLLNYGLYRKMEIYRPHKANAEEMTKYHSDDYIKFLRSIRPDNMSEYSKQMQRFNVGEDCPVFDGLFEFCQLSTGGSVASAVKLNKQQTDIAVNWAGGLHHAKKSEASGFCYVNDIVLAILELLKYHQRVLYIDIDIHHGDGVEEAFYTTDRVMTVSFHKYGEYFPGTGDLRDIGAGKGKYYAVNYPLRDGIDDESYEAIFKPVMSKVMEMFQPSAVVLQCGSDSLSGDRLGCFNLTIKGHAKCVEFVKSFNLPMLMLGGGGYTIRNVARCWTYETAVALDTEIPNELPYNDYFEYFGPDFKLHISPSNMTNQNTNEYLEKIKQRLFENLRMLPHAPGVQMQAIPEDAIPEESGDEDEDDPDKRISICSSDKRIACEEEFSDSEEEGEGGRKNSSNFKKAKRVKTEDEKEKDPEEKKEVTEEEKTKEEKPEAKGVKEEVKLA
# Sequence of Histone deacetylase 4 (P56524 whole entry): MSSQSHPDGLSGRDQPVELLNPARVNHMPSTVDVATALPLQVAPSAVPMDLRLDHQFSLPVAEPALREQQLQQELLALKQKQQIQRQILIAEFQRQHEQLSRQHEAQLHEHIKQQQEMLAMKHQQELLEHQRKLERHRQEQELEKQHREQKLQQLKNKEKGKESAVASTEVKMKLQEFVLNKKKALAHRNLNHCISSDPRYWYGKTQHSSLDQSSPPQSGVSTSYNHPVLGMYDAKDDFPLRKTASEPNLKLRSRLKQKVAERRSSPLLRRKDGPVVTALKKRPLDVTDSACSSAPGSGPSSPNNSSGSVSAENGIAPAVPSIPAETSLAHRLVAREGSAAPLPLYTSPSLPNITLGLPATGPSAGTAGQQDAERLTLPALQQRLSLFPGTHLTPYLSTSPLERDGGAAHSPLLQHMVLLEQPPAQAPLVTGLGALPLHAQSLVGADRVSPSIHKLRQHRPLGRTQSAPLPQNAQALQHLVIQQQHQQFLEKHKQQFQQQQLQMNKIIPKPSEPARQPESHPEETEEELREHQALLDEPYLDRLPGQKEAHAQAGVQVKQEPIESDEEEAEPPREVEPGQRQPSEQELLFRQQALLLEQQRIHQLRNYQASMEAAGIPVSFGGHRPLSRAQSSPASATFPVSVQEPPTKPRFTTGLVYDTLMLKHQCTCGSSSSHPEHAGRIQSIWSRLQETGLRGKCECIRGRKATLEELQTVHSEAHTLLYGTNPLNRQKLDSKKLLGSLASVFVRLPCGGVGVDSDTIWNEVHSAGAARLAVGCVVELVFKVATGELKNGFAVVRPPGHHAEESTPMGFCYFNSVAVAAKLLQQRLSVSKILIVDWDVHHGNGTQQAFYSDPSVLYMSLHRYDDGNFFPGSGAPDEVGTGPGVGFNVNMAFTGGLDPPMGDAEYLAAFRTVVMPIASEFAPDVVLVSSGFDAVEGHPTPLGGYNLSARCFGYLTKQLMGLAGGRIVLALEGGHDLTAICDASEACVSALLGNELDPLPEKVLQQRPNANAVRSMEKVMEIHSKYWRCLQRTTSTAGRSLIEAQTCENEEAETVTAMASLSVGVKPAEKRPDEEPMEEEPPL
SMILES,IC50 (Histone deacetylase 4) [µM],IC50 [1] [µM],EC1000 (HeLa) [µM],Activity (Mus musculus),IC50 (Histone deacetylase 1) [µM]
CC(C)[C@H]1NC(=O)[C@@H](C)[C@@H](C/C=C\CCC(=O)O)NC(=O)[C@@H](Cc2ccccc2)NC(=O)[C@@H](C)NC1=O [AZUMAMIDE E],2.28,> 50,17,Dose-dependent effect,
CC(C)[C@H]1NC(=O)[C@@H](C)[C@@H](C/C=C\CCC(=O)O)NC(=O)[C@@H](Cc2ccc(O)cc2)NC(=O)[C@@H](C)NC1=O [AZUMAMIDE C],3.16,> 50,>25,,1.17
CC(C)[C@H]1NC(=O)[C@@H](C)[C@@H](C/C=C\CCC(N)=O)NC(=O)[C@@H](Cc2ccc(O)cc2)NC(=O)[C@@H](C)NC1=O [AZUMAMIDE B],3.66,> 50,>25,,1.83
C[C@@H]1C(=O)N[C@H](C)C(=O)N[C@H](C)C(=O)N[C@H](Cc2ccccc2)C(=O)N[C@@H]1C/C=C\CCC(N)=O [AZUMAMIDE D],> 50,> 50,>25,,> 50
CC(/C=C/C(=O)NO)=C\[C@@H](C)C(=O)c1ccc(N(C)C)cc1 [TRICHOSTATIN],,,0.0115,,
CC(C)[C@H]1NC(=O)[C@@H](C)[C@@H](C/C=C\CCC(N)=O)NC(=O)[C@@H](Cc2ccccc2)NC(=O)[C@@H](C)NC1=O [AZUMAMIDE A],> 50,> 50,>25,,> 50
